Measured values as given in patent US7919532B2, “Hydroxylated aromatic compounds” (Revotar Biopharmaceuticals AG, priority 2005, dated 2011).

Assays:
[1] = molecular target: T1, human L-Selectin-IgG-chimera (Homo sapiens, UniProt P14151); assay: Sialyl Lewis X Tyrosine Sulfate Assay (sLex TSA), L-selectin; conditions: inhibition of binding of sLex-tyrosine sulfate polyacrylamide ligand complex to selectin chimera
T1 construct: IgG (chimera partner)
Experimental: (§1) Compounds of the present invention are assayed on a molecular level for their ability to inhibit the binding of P-, L-, or E-selectin chimeric molecules to sLe^x and tyrosinesulfate residues linked to a polymeric matrix as a PSGL-1 substitute. Selected IC50-values are determined.
(§2) Microtiter plates are coated overnight in carbonate buffer pH9.6 with goat anti human Fc mAB (10 μg/ml). After washing in assay buffer (25 mM 4-(2-hydroxyethyl)-1-piperazineethanesulfonic acid (HEPES), 150 mM NaCl, 1 mM CaCl2 pH7.4) and blocking (3% bovine serum albumin (BSA) in assay buffer) plates are incubated for 2 h at 37° C. with human P-Selectin-IgG-chimera (0.61 nM respectively 150 ng/mL) or human L-Selectin-IgG-chimera (0.61 nM respectively 89 ng/mL) or human E-Selectin-IgG-chimera (0.61 nM respectively 131 ng/mL). 5 μl of sLe^x-tyrosine sulfate polyacrylamide (1 mg/ml) carrying 15% sLe^x, 10% Tyrosine-sulfate and 5% biotin is complexed with 20 μl Streptavidin-Peroxidase solution (1 mg/ml) and 25 μl assay buffer without CaCl2. For use in the assay, the ligand complex is diluted 1:10000 in assay buffer and further diluted 1:1 with varying amounts of compounds in assay buffer incl. 2% DMSO. This mixture is added to the wells precoated with E- or P-selectin. After incubation for 2 h at 37° C., wells are washed for six times with in assay buffer incl. 0.005% Polyoxyethylenesorbitan monolaurate (TWEEN 20), developed for 10-15 min with 20 μl 3,3′,5,5′-tetramethylbenzidine (TMB)/H2O2 substrate solution and stopped with 20 μl 1M H2SO4. Bound sLe^x-Tyrosine sulfate ligand complex is determined by measuring optical density at 450 nm vs. 620 nm in a Fusion alpha-FP reader (sold from Packard Bioscience, Dreieich, Germany).

[2] = molecular target: T2, human E-Selectin-IgG-chimera (Homo sapiens, UniProt P16581); assay: Flow chamber assay, cell adhesion and rolling under flow conditions, E-selectin; format: cell-based; conditions: 125 μM compound, HL-60 cells, flow shear 1 dyne/cm^2, dish coated 2.5 μg/ml E-selectin-IgG chimera
T2 sequence (P16581 with tags, fused parts or gaps limits assumed): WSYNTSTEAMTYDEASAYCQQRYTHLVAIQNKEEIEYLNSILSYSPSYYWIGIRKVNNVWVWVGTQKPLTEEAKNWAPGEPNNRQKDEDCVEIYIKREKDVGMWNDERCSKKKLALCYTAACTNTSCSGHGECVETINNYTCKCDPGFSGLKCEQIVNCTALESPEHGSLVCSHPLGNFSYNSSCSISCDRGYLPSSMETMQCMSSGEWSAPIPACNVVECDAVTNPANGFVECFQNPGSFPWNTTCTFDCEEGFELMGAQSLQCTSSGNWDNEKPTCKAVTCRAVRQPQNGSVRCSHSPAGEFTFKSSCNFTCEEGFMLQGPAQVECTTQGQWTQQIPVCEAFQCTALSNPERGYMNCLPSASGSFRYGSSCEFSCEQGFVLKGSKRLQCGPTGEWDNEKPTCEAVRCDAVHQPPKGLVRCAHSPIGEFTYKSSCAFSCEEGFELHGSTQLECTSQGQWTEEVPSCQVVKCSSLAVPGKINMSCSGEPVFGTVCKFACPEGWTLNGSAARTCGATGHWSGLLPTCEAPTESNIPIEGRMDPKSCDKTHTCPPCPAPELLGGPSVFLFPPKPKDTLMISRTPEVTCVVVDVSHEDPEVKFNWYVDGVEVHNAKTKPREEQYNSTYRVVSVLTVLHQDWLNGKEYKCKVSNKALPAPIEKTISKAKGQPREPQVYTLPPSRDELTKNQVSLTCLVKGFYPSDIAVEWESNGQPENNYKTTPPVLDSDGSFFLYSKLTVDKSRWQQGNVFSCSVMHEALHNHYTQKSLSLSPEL
Experimental: (§3) Flow Chamber Assay/Cell Adhesion and Rolling Under Flow Conditions
(§4) To assess the capability of compounds to inhibit cell binding under dynamic conditions resembling the flow in a blood vessel, flow chamber assays addressing/testing binding of HL-60 cells/various cell lines to P-selectin, L-selectin and E-selectin chimeric molecules are performed.
(§5) Cell attachment under flow conditions are determined using a parallel flow chamber system. A 35 mm polystyrene culture dish is coated for 1 hour at room temperature with coating buffer (50 mM tris-(hydroxymethyl)aminomethane buffer (Tris), 150 mM NaCl, 2 mM CaCl2; pH 7.4) containing human E- or P-selectin-IgG chimera at concentrations of 2.5 μg/ml or 10 μg/ml, respectively. After removal of the coating solution non specific binding sites are blocked for an additional hour with 1% BSA in coating buffer at room temperature. After washing with assay buffer (“Roswell Park Memorial Institute 1640” (RPMI 1640)+10 mM HEPES) the dish is fitted into a parallel plate laminar flow chamber (sold from Glycotech, Rockville, Md.) and mounted on an inverted phase-contrast microscope (sold from Olympus, Hamburg, Germany) equipped with a CCD camera (JVC) that is connected to a PC. Employing a peristaltic pump (sold from Ismatec, Wertheim-Mondfeld, Germany) the re-circulating system is equilibrated with assay buffer containing 125 μM compound or vehicle control (DMSO). Cells (1 million/ml) are added to the chamber and allowed to distribute for 2 minutes at a high flow rate. The flow rate is then decreased resulting in a calculated flow shear of 1 dyne/cm^2. Video sequences of 10 low power fields are digitally recorded after 5 minutes continuous flow. The percentage of inhibition is calculated from the mean number of cells per field that attached to the coated dish surface in the presence versus absence of compound […].
(§6) Data from Flow Chamber Assay for E- and P-Selectin

[3] = molecular target: T2, human E-Selectin-IgG-chimera; assay: Sialyl Lewis X Tyrosine Sulfate Assay (sLex TSA), E-selectin; set-up: IgG (chimera partner); conditions: inhibition of binding of sLex-tyrosine sulfate polyacrylamide ligand complex to selectin chimera
Experimental: as §1, §2

[4] = molecular target: T3, human P-Selectin-IgG-chimera (Homo sapiens, UniProt P16109); assay: Flow chamber assay, cell adhesion and rolling under flow conditions, P-selectin; format: cell-based; conditions: 125 μM compound, HL-60 cells, flow shear 1 dyne/cm^2, dish coated 10 μg/ml P-selectin-IgG chimera
T3 sequence (P16109 with tags, fused parts or gaps limits assumed): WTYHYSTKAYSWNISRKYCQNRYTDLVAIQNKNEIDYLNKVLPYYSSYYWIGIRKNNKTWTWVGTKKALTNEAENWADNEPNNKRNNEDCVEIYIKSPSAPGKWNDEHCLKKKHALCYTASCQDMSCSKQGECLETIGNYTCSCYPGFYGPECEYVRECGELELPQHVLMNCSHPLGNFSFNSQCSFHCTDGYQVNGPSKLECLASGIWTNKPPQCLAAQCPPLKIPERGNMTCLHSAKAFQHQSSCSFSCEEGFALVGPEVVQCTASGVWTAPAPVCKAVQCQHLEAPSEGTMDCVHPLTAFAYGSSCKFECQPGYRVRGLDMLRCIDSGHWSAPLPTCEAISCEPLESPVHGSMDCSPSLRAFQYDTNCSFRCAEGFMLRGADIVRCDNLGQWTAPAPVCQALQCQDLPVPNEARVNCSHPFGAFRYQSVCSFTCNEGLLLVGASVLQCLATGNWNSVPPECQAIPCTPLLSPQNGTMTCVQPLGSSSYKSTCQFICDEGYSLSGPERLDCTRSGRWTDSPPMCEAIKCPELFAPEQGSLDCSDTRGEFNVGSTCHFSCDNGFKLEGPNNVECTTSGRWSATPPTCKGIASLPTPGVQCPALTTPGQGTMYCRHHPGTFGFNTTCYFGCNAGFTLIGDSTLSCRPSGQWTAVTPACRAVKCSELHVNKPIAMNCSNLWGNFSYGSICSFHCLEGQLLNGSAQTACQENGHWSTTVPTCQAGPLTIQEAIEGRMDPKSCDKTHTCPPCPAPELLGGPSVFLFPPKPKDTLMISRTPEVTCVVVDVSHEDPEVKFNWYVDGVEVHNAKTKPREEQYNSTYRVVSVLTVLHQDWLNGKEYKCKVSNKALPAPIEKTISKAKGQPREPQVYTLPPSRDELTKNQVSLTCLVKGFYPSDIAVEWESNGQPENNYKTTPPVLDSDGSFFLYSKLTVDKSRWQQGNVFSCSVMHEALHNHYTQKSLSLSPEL
Experimental: as §3, §4, §5, §6

[5] = molecular target: T3, human P-Selectin-IgG-chimera; assay: Sialyl Lewis X Tyrosine Sulfate Assay (sLex TSA), P-selectin; set-up: IgG (chimera partner); conditions: inhibition of binding of sLex-tyrosine sulfate polyacrylamide ligand complex to selectin chimera
Experimental: as §1, §2

T1 sequence (P14151 with tags, fused parts or gaps limits assumed): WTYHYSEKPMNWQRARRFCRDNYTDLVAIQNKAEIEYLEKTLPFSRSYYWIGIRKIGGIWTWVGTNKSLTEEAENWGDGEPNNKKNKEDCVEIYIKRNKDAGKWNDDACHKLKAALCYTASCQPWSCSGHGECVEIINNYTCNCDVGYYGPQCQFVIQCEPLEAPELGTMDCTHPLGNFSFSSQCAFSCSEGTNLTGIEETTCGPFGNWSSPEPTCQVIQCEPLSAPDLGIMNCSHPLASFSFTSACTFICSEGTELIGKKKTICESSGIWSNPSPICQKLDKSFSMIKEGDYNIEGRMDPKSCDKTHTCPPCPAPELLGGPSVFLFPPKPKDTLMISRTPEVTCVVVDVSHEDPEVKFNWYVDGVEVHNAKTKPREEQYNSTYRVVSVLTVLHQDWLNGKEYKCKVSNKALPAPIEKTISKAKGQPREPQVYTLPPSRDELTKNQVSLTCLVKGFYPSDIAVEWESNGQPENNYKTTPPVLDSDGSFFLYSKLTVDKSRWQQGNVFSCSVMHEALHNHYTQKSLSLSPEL

SMILES	IC50 [1] [µM]	E-Selectin [Ratio]: normalized ratio of %-inhibition of compound divided by %-inhibition of bimosiamose [2] [Ratio]	IC50 [3] [µM]	P-Selectin [Ratio]: normalized ratio of %-inhibition of compound divided by %-inhibition of bimosiamose [4] [Ratio]	IC50 [5] [µM]
O=C(Nc1ccccc1-c1ccc(C(=O)O)s1)c1cccc(-c2c(O)cc(O)cc2O)c1 [Compound 26, 5-{2-[(2′,4′,6′-trihydroxy-biphenyl-3-carbonyl)-amino]-phenyl}-thiophene-2-carboxylic acid]	28.2	1.11	33.3	0.77	27.8
O=C(O)Cc1ccc(-c2ccccc2NC(=O)Cc2c(O)cc(O)cc2O)s1 [Compound 25, (5-{2-[2-(2,4,6-Trihydroxy-phenyl)-acetylamino]-phenyl}-thiophen-2-yl)-acetic acid]	95.9	0.94	105	1.65	87.9
Cc1oc(-c2ccc(NC(=O)Cc3c(O)cc(O)cc3O)cc2)cc1C(=O)O [Compound 19, 2-Methyl-5-{4-[2-(2,4,6-trihydroxy-phenyl)-acetylamino]-phenyl}-furan-3-carboxylic acid]	22.1	0.75	12.4	1.27	20.7
O=C(Cc1c(O)cc(O)cc1O)Nc1cccc(C(=O)O)c1 [Compound 18, 3-[2-(2,4,6-Trihydroxy-phenyl)-acetylamino]-benzoic acid]	35.1	0.80	41.2	1.07	37.1
Cc1oc(-c2ccc(NC(=O)c3cccc(-c4c(O)cc(O)cc4O)c3)cc2)cc1C(=O)O [Compound 60, 2-Methyl-5-{4-[(2′,4′,6′-trihydroxy-biphenyl-3-carbonyl)-amino]-phenyl}-furan-3-carboxylic acid]	6.1	1.05	7.8	0.99	5.2
O=C(O)Cc1cccc(-c2cc(CCCCCCc3ccc(O[C@H]4O[C@H](CO)[C@@H](O)[C@H](O)[C@@H]4O)c(-c4cccc(CC(=O)O)c4)c3)ccc2O[C@H]2O[C@H](CO)[C@@H](O)[C@H](O)[C@@H]2O)c1 [Bimosiamose, bimosiamose, reference compound]	> 500				

Now from value to compound:

IC50 [1] [µM]	E-Selectin [Ratio]: normalized ratio of %-inhibition of compound divided by %-inhibition of bimosiamose [2] [Ratio]	IC50 [3] [µM]	P-Selectin [Ratio]: normalized ratio of %-inhibition of compound divided by %-inhibition of bimosiamose [4] [Ratio]	IC50 [5] [µM]	SMILES
6.3	1.06	5.7	1.23	6	O=C(O)Cc1ccc(-c2cccc(NC(=O)c3cccc(-c4c(O)cc(O)cc4O)c3)c2)s1 [Compound 64, (5-{3-[(2′,4′,6′-trihydroxy-biphenyl-3-carbonyl)-amino]-phenyl}-thiophen-2-yl)-acetic acid]
17.4	1.23	21.9	0.87	17.4	O=C(O)Cc1ccc(-c2ccccc2NC(=O)c2cccc(-c3c(O)cc(O)cc3O)c2)s1 [Compound 63, (5-{2-[(2′,4′,6′-Trihydroxy-biphenyl-3-carbonyl)-amino]-phenyl}-thiophen-2-yl)-acetic acid]
15.5	1.13	28.1	0.99	8.2	O=C(Nc1ccccc1-c1cccs1)c1cccc(-c2c(O)cc(O)cc2O)c1 [Compound 65, 2′,4′,6′-Trihydroxy-biphenyl-3-carboxylic acid (2-thiophen-2-yl-phenyl)-amide]
	1.47		1.19		O=C(Nc1cccc(C(F)(F)F)c1)c1cccc(-c2c(O)cc(O)cc2O)c1 [Compound 66, 2′,4′,6′-Trihydroxy-biphenyl-3-carboxylic acid (3-trifluoromethyl-phenyl)-amide]
25.2	0.79	27.3	0.95	23.3	O=C(O)c1cccc(NC(=O)c2cccc(-c3c(O)cc(O)cc3O)c2)c1 [Compound 67, 3-[(2′,4′,6′-Trihydroxy-biphenyl-3-carbonyl)-amino]-benzoic acid]
